This data set can be described thus: Particle size distribution by Malvern Mastersizer S particle size analyzer. Format: physicochemical. The conditions noted are these: for particle size D[v, 0.5] / particle size D[v, 0.9]: crystals as isolated after crystallization from isobutyl acetate and drying, by volume, mean of nine readings, hydrochloride; for AFTER MILLING D[v, 0..5] / AFTER MILLING D[v, 0.9]: after milling 1 hour, Specac Specamill, three agate balls, maximum amplitude; for BEFORE MILLING D[v, 0.9]: in µm (unit assumed). On the procedure: The particle size for cinacalcet hydrochloride was measured using a Malvern Mastersizer S particle size analyzer with an MS1 Small Volume Sample Dispersion Unit stirred cell. A 300RF mm lens and a beam length of 2.4 mm were used. Samples for analysis were prepared by dispersing a weighed amount of cinacalcet hydrochloride (approximately 60 mg) in 20 mL of sample dispersant, previously prepared by dilution of 1.5 g of Soybean Lecithin to 200 mL with Isopar G. The suspension was delivered drop-wise to the background-corrected measuring cell filled with dispersant (Isopar G) until the obscuration reached the desired level. Nine repeated readings of the volume distributions were taken. For characterization, the values of D50 and D90 (by volume) were selected and reported as the mean of the nine values measured.

Where [1] appears, read: listed as Cinacalcet hydrochloride from Example 4, hydrochloride.
Setting [2] is: listed as Cinacalcet hydrochloride from Example 7, hydrochloride.
Where [3] appears, read: listed as Cinacalcet hydrochloride from Example 9, hydrochloride.

The text below walks through data of patent US20090275780A1, “PROCESS FOR CONTROLLING THE PARTICLE SIZE OF A 3-(TRIFLUOROMETHYL)PHENYL]-1-AMINOPROPANE DERIVATIVE” (MEDICHEM, S.A., priority 2008, published 2009).

For the compound `C[C@@H](NCCCc1cccc(C(F)(F)F)c1)c1cccc2ccccc12.Cl` [Example 1, cinacalcet hydrochloride], the “particle size D[v, 0.5]” value was 23.4 μm and the “particle size D[v, 0.9]” value turned out to be 95.4 μm.
Take `C[C@@H](NCCCc1cccc(C(F)(F)F)c1)c1cccc2ccccc12.Cl` [Example 2, cinacalcet hydrochloride]: the “particle size D[v, 0.5]” value was 20.7 μm and the “particle size D[v, 0.9]” value was 86.1 μm.
In the case of `C[C@@H](NCCCc1cccc(C(F)(F)F)c1)c1cccc2ccccc12.Cl` [Example 3, cinacalcet hydrochloride], the “particle size D[v, 0.5]” value was determined as 49.8 μm and the “particle size D[v, 0.9]” value was determined as 387.9 μm.
Consider `C[C@@H](NCCCc1cccc(C(F)(F)F)c1)c1cccc2ccccc12.Cl` [Example 4, cinacalcet hydrochloride], for which the “particle size D[v, 0.5]” value is on record as 57.7 μm and the “particle size D[v, 0.9]” value is reported as 403.9 μm. Also, under setting [1], the AFTER MILLING D[v, 0..5] is 25.7 µm; the AFTER MILLING D[v, 0.9] is 91.8 µm; the BEFORE MILLING D[v, 0..5] is 57.7 µm; the “BEFORE MILLING D[v, 0.9]” value is 403.9.
Turning to `C[C@@H](NCCCc1cccc(C(F)(F)F)c1)c1cccc2ccccc12.Cl` [Example 5, cinacalcet hydrochloride], the “particle size D[v, 0.5]” value is listed as 76.4 μm and the “particle size D[v, 0.9]” value turned out to be 456.0 μm.
Take `C[C@@H](NCCCc1cccc(C(F)(F)F)c1)c1cccc2ccccc12.Cl` [Example 6, cinacalcet hydrochloride]: the “particle size D[v, 0.5]” value worked out at 65.0 μm and the “particle size D[v, 0.9]” value turned out to be 392.3 μm.
For the compound `C[C@@H](NCCCc1cccc(C(F)(F)F)c1)c1cccc2ccccc12.Cl` [Example 7, cinacalcet hydrochloride], the “particle size D[v, 0.5]” value came to 70.3 μm and the “particle size D[v, 0.9]” value amounted to 431.7 μm. In addition, under setting [2], the AFTER MILLING D[v, 0..5] was 21.2 µm; the AFTER MILLING D[v, 0.9] is 83.3 µm; the BEFORE MILLING D[v, 0..5] is 70.3 µm; the “BEFORE MILLING D[v, 0.9]” value is 431.7.
For the compound `C[C@@H](NCCCc1cccc(C(F)(F)F)c1)c1cccc2ccccc12.Cl` [Example 8, cinacalcet hydrochloride], the “particle size D[v, 0.5]” value is reported as 67.2 μm and the “particle size D[v, 0.9]” value was determined as 459.0 μm.
With `C[C@@H](NCCCc1cccc(C(F)(F)F)c1)c1cccc2ccccc12.Cl` [Example 9, cinacalcet hydrochloride], the “particle size D[v, 0.5]” value is listed as 74.0 μm and the “particle size D[v, 0.9]” value stood at 518.3 μm. For the same compound, under setting [3], the AFTER MILLING D[v, 0..5] is 25.1 µm; the AFTER MILLING D[v, 0.9] was 76.7 µm; the BEFORE MILLING D[v, 0..5] was 74 µm; the “BEFORE MILLING D[v, 0.9]” value is reported as 518.3.
Take `C[C@@H](NCCCc1cccc(C(F)(F)F)c1)c1cccc2ccccc12.Cl` [Example 11, cinacalcet hydrochloride]: the “particle size D[v, 0.5]” value was 99.8 μm and the “particle size D[v, 0.9]” value worked out at 466.9 μm.
